Results: patent publication US20090298820A1, “3-SUBSTITUTED-1H-PYRROLO[2,3-B]PYRIDINE AND 3-SUBSTITUTED-1H-PYRROLO[3,2-B]PYRIDINE COMPOUNDS, THEIR USE AS MTOR KINASE AND PI3 KINASE INHIBITORS, AND THEIR SYNTHESES” (Wyeth, priority 2008, published 2009)
Read-outs that look alike come from different tables or passages of the source. Blank lines part the entries; values can stand above or below the compound they belong to.

What was measured:
Format in all cases: biochemical
PI3Kα = PI3Kα (Homo sapiens, UniProt P42336); assay: PI3K-alpha fluorescence polarization assay; conditions: read-out: PI3Kα Median IC50
Sequence of PI3Kα (P42336 whole entry, species assumed): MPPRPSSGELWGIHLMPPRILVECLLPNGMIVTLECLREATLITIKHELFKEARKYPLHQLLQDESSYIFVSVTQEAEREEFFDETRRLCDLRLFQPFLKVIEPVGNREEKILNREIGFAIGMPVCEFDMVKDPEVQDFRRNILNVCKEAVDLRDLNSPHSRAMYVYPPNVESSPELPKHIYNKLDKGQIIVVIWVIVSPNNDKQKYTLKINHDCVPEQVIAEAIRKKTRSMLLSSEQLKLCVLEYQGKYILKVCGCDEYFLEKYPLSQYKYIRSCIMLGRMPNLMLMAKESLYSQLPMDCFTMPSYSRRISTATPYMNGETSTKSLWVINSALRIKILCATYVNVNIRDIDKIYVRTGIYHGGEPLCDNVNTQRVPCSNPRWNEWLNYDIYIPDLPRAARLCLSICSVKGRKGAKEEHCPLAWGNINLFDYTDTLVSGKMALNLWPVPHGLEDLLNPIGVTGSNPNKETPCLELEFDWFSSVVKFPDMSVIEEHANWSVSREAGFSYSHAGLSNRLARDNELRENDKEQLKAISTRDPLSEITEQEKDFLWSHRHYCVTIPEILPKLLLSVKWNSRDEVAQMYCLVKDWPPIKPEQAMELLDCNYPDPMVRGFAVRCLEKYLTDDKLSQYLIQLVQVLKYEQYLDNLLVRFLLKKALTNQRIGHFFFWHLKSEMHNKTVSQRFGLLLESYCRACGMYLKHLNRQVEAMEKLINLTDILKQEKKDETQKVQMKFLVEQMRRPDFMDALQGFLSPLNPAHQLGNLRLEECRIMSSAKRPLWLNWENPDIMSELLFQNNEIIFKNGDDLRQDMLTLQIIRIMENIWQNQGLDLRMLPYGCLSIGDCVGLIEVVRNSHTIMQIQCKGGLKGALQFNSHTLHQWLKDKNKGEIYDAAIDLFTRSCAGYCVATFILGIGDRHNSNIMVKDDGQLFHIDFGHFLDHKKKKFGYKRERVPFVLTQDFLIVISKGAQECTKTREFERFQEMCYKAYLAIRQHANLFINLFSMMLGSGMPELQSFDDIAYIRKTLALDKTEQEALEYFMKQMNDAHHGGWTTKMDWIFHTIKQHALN
Sequence of PI3Kα (P27986 whole entry partner, species assumed): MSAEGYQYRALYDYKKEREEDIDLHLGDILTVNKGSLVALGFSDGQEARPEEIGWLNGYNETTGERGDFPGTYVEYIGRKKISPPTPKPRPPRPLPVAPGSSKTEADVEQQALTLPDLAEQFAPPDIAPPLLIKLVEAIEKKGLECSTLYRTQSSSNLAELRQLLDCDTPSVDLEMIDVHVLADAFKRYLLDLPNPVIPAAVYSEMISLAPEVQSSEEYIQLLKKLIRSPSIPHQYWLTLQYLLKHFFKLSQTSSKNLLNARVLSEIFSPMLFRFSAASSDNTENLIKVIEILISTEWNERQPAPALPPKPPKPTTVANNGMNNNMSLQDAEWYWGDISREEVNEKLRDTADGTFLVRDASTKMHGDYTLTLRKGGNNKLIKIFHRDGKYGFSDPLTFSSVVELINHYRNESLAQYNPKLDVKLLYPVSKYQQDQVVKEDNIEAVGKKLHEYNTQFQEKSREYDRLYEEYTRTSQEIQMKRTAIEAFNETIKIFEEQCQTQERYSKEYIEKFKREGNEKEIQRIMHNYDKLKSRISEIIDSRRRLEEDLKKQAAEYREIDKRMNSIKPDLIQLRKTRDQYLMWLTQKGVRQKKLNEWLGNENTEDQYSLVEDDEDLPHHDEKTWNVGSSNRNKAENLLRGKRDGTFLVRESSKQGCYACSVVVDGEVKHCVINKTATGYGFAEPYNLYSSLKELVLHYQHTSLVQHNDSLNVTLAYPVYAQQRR

mTOR = mTOR (Homo sapiens, UniProt P42345); assay: mTOR enzyme assay (DELFIA format, His6-S6K substrate)
PI3Kγ = PI3Kγ (Homo sapiens, UniProt P48736); assay: PI3K-gamma fluorescence polarization assay; conditions: read-out: PI3Kγ Median IC50
Sequence of PI3Kγ (P48736 whole entry, species assumed): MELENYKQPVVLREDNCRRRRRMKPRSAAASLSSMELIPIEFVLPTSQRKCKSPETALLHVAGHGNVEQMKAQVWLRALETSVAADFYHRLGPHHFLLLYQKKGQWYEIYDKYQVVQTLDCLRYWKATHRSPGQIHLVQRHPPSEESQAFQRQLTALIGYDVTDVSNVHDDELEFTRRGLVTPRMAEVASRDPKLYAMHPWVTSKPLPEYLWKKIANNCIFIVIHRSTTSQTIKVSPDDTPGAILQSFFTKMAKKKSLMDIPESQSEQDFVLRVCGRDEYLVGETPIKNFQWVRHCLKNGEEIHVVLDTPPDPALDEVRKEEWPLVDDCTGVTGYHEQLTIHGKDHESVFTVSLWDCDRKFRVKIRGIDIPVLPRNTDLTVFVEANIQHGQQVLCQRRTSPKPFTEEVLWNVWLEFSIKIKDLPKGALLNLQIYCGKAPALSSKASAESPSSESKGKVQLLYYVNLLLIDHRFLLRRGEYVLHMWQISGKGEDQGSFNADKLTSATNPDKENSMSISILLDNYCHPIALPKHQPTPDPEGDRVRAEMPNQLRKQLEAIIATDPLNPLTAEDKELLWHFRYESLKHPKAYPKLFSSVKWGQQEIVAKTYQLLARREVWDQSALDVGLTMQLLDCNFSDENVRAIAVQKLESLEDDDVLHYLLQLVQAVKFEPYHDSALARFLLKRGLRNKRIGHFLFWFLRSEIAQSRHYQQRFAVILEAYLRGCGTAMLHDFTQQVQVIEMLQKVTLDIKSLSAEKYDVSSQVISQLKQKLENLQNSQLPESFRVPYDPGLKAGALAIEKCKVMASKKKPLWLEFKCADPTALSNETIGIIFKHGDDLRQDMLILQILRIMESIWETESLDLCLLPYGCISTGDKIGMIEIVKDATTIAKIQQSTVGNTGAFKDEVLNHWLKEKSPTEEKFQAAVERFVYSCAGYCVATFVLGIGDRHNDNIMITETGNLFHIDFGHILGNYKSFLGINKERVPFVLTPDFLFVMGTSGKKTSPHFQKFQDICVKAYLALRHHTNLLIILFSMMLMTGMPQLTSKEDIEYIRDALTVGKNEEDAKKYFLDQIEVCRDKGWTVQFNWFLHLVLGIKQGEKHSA

[1] = read-out: mTOR Kinase Median IC50

Compound: COc1ccc2c(n1)c(C=C1Oc3cccc(O)c3C1=O)cn2C [Compound 5, 4-hydroxy-2-[(5-methoxy-1-methyl-1H-pyrrolo[3,2-b]pyridin-3-yl)methylene]-1-benzofuran-3(2H)-one]
IC50 (PI3Kα): 3930 nM | IC50 (mTOR; [1]): > 20000 nM | IC50 (PI3Kγ): > 10000 nM

Compound: Cn1cc(/C=C2\Oc3cccc(O)c3C2=O)c2c(-c3ccc(N4CCNCC4)cc3)ccnc21 [Compound 135, (2Z)-4-hydroxy-2-{[1-methyl-4-(4-piperazin-1-ylphenyl)-1H-pyrrolo[2,3-b]pyridin-3-yl]methylene}-1-benzofuran-3(2H)-one]
IC50 (PI3Kα): 156 nM | IC50 (mTOR; [1]): 10 nM | IC50 (PI3Kγ): 1420 nM

Compound: CN(C)C(=O)C1CCN(c2ccnc3c2c(/C=C2\Oc4ccc(NC(=O)Nc5ccc(N6CCOCC6)nc5)cc4C2=O)cn3C)CC1 [Compound 217, N,N-dimethyl-1-(1-methyl-3-{(Z)-[5-{[(6-morpholin-4-ylpyridin-3-yl)carbamoyl]amino}-3-oxo-1-benzofuran-2(3H)-ylidene]methyl}-1H-pyrrolo[2,3-b]pyridin-4-yl)piperidine-4-carboxamide]
IC50 (PI3Kα): 4010 nM | IC50 (mTOR; [1]): 97 nM | IC50 (PI3Kγ): > 10000 nM

Compound: Cn1c(-c2ccccc2)c(/C=C2\Oc3cc(O)cc(O)c3C2=O)c2cccnc21 [Compound 27, (2Z)-4,6-dihydroxy-2-[(1-methyl-2-phenyl-1H-pyrrolo[2,3-b]pyridin-3-yl)methylene]-1-benzofuran-3(2H)-one]
IC50 (PI3Kα): 820 nM | IC50 (mTOR; [1]): 50 nM | IC50 (PI3Kγ): 4000 nM

Compound: CNC(=O)Nc1ccc2c(c1)C(=O)/C(=C/c1cn(CCN3CCN(C)CC3)c3ncc(OC)cc13)O2 [Compound 120, 1-[(2Z)-2-({5-methoxy-1-[2-(4-methylpiperazin-1-yl)ethyl]-1H-pyrrolo[2,3-b]pyridin-3-yl}methylene)-3-oxo-2,3-dihydro-1-benzofuran-5-yl]-3-methylurea]
IC50 (PI3Kα): 35 nM | IC50 (mTOR): 285 nM | IC50 (PI3Kγ): 2380 nM

Compound: CN(C)CCNC(=O)c1ccc(-c2ccnc3c2c(/C=C2\Oc4cccc(O)c4C2=O)cn3C)cc1 [Compound 158, N-[2-(dimethylamino)ethyl]-4-{3-[(Z)-(4-hydroxy-3-oxo-1-benzofuran-2(3H)-ylidene)methyl]-1-methyl-1H-pyrrolo[2,3-b]pyridin-4-yl}benzamide]
IC50 (PI3Kα): 179 nM | IC50 (mTOR; [1]): 8.6 nM | IC50 (PI3Kγ): 149 nM

Compound: CN(C)c1cccc(-c2ccnc3c2c(/C=C2\Oc4cc(O)cc(O)c4C2=O)cn3C)c1 [Compound 52, (2Z)-2-({4-[3-(dimethylamino)phenyl]-1-methyl-1H-pyrrolo[2,3-b]pyridin-3-yl}methylene)-4,6-dihydroxy-1-benzofuran-3(2H)-one]
IC50 (PI3Kα): 123 nM | IC50 (mTOR; [1]): 0.6 nM | IC50 (PI3Kγ): 199 nM

Compound: CCN(CC)C(=O)C1CCN(c2ccnc3c2c(/C=C2\Oc4ccc(NC(=O)Nc5cccnc5)cc4C2=O)cn3C)CC1 [Compound 244, N,N-diethyl-1-{1-methyl-3-[(Z)-{3-oxo-5-[(pyridin-3-ylcarbamoyl)amino]-1-benzofuran-2(3H)-ylidene}methyl]-1H-pyrrolo[2,3-b]pyridin-4-yl}piperidine-4-carboxamide]
IC50 (PI3Kα): 308 nM | IC50 (mTOR; [1]): 115 nM | IC50 (PI3Kγ): 3380 nM

Compound: CC(C)NC(=O)Nc1ccc2c(c1)C(=O)/C(=C/c1cn(C)c3nccc(N4CCC(C(=O)N(C)C)CC4)c13)O2 [Compound 288, N,N-dimethyl-1-(1-methyl-3-{(Z)-[5-{[(1-methylethyl)carbamoyl]amino}-3-oxo-1-benzofuran-2(3H)-ylidene]methyl}-1H-pyrrolo[2,3-b]pyridin-4-yl)piperidine-4-carboxamide]
IC50 (PI3Kα): 1490 nM | IC50 (mTOR; [1]): 73 nM | IC50 (PI3Kγ): 3780 nM

Compound: Cn1cc(/C=C2\Oc3cccc(O)c3C2=O)c2c(-c3cc4ccccc4o3)ccnc21 [Compound 85, (2Z)-2-{[4-(1-benzofuran-2-yl)-1-methyl-1H-pyrrolo[2,3-b]pyridin-3-yl]methylene}-4-hydroxy-1-benzofuran-3(2H)-one]
IC50 (PI3Kα): 273 nM | IC50 (mTOR; [1]): 26.5 nM | IC50 (PI3Kγ): 157 nM

Compound: CCN(CCO)C(=O)c1ccc(-c2ccnc3c2c(/C=C2\Oc4cccc(O)c4C2=O)cn3C)cc1 [Compound 243, N-ethyl-N-(2-hydroxyethyl)-4-{3-[(Z)-(4-hydroxy-3-oxo-1-benzofuran-2(3H)-ylidene)methyl]-1-methyl-1H-pyrrolo[2,3-b]pyridin-4-yl}benzamide]
IC50 (PI3Kα): 167 nM | IC50 (mTOR; [1]): 90.5 nM | IC50 (PI3Kγ): 219 nM

Compound: Cn1cc(/C=C2\Oc3ccc(NC(=O)Nc4cccnc4)cc3C2=O)c2c(N3CCOCC3)ccnc21 [Compound 185, 1-{(2Z)-2-[(1-methyl-4-morpholin-4-yl-1H-pyrrolo[2,3-b]pyridin-3-yl)methylidene]-3-oxo-2,3-dihydro-1-benzofuran-5-yl}-3-pyridin-3-ylurea]
IC50 (PI3Kα): 275 nM | IC50 (mTOR; [1]): 71 nM | IC50 (PI3Kγ): 348 nM

Compound: CN1CCN(NC(=O)Nc2ccc3c(c2)C(=O)/C(=C/c2cn(C)c4nccc(N5CCC(C(=O)N(C)C)CC5)c24)O3)CC1 [Compound 228, N,N-dimethyl-1-(1-methyl-3-{(Z)-[5-{[(4-methylpiperazin-1-yl)carbamoyl]amino}-3-oxo-1-benzofuran-2(3H)-ylidene]methyl}-1H-pyrrolo[2,3-b]pyridin-4-yl)piperidine-4-carboxamide]
IC50 (PI3Kα): 415 nM | IC50 (mTOR; [1]): 170 nM | IC50 (PI3Kγ): 2750 nM

Compound: Cn1cc(/C=C2\Oc3cccc(O)c3C2=O)c2c(-c3cccc(C(=O)Nc4ccccc4)c3)ccnc21 [Compound 138, 3-{3-[(Z)-(4-hydroxy-3-oxo-1-benzofuran-2(3H)-ylidene)methyl]-1-methyl-1H-pyrrolo[2,3-b]pyridin-4-yl}-N-phenylbenzamide]
IC50 (PI3Kα): 141 nM | IC50 (mTOR; [1]): 7.8 nM | IC50 (PI3Kγ): 1230 nM

More lines, in order of falling IC50 (PI3Kα), values ahead:

IC50 (PI3Kα): 64 nM | IC50 (mTOR; [1]): 41.5 nM | IC50 (PI3Kγ): 168 nM
Compound: Cn1cc(C=C2Oc3cc(O)cc(O)c3C2=O)c2cccnc21 [Compound 1, 4,6-dihydroxy-2-[(1-methyl-1H-pyrrolo[2,3-b]pyridin-3-yl)methylene]-1-benzofuran-3(2H)-one]

IC50 (PI3Kα): 47 nM | IC50 (mTOR; [1]): 3.4 nM | IC50 (PI3Kγ): 92 nM
Compound: Cn1cc(/C=C2\Oc3cc(O)cc(O)c3C2=O)c2c(/C=C/c3ccccc3)ccnc21 [Compound 51, (2Z)-4,6-dihydroxy-2-({1-methyl-4-[(E)-2-phenylvinyl]-1H-pyrrolo[2,3-b]pyridin-3-yl}methylene)-1-benzofuran-3(2H)-one]

IC50 (PI3Kα): 46 nM | IC50 (mTOR; [1]): 72 nM | IC50 (PI3Kγ): 183 nM
Compound: CNC(=O)Nc1ccc2c(c1)C(=O)/C(=C/c1c[nH]c3ncc(OC)cc13)O2 [Compound 119, 1-{(2Z)-2-[(5-methoxy-1H-pyrrolo[2,3-b]pyridin-3-yl)methylene]-3-oxo-2,3-dihydro-1-benzofuran-5-yl}-3-methylurea]

IC50 (PI3Kα): 34 nM | IC50 (mTOR; [1]): 3 nM | IC50 (PI3Kγ): 101 nM
Compound: Cn1cc(/C=C2\Oc3cccc(O)c3C2=O)c2c(-c3ccc(S(=O)(=O)N4CCOCC4)cc3)ccnc21 [Compound 191, (2Z)-4-hydroxy-2-({1-methyl-4-[4-(morpholin-4-ylsulfonyl)phenyl]-1H-pyrrolo[2,3-b]pyridin-3-yl}methylidene)-1-benzofuran-3(2H)-one]

IC50 (PI3Kα): 27 nM | IC50 (mTOR; [1]): 2 nM | IC50 (PI3Kγ): 106 nM
Compound: Cn1cc(/C=C2\Oc3cccc(O)c3C2=O)c2c(-c3ccc(C(=O)N4CCNCC4)cc3)ccnc21 [Compound 136, (2Z)-4-hydroxy-2-({1-methyl-4-[4-(piperazin-1-ylcarbonyl)phenyl]-1H-pyrrolo[2,3-b]pyridin-3-yl}methylene)-1-benzofuran-3(2H)-one]

IC50 (PI3Kα): 23 nM | IC50 (mTOR; [1]): 3.1 nM | IC50 (PI3Kγ): 75 nM
Compound: Cn1cc(/C=C2\Oc3cccc(O)c3C2=O)c2c(-c3ccc(S(C)(=O)=O)cc3)ccnc21 [Compound 73, (2Z)-4-hydroxy-2-({1-methyl-4-[4-(methylsulfonyl)phenyl]-1H-pyrrolo[2,3-b]pyridin-3-yl}methylene)-1-benzofuran-3(2H)-one]

IC50 (PI3Kα): 23 nM | IC50 (mTOR; [1]): 0.2 nM | IC50 (PI3Kγ): 177 nM
Compound: Cn1cc(/C=C2\Oc3cc(O)cc(O)c3C2=O)c2c(N3CCC(O)CC3)ccnc21 [Compound 50, (2Z)-4,6-dihydroxy-2-{[4-(4-hydroxypiperidin-1-yl)-1-methyl-1H-pyrrolo[2,3-b]pyridin-3-yl]methylene}-1-benzofuran-3(2H)-one]

IC50 (PI3Kα): 19 nM | IC50 (mTOR; [1]): 2.7 nM | IC50 (PI3Kγ): 106 nM
Compound: Cn1cc(/C=C2\Oc3cc(O)cc(O)c3C2=O)c2c(-c3cccc(NS(C)(=O)=O)c3)ccnc21 [Compound 18, N-(3-{3-[(Z)-(4,6-dihydroxy-3-oxo-1-benzofuran-2(3H)-ylidene)methyl]-1-methyl-1H-pyrrolo[2,3-b]pyridin-4-yl}phenyl)methanesulfonamide]

IC50 (PI3Kα): 11 nM | IC50 (mTOR; [1]): 0.4 nM | IC50 (PI3Kγ): 51 nM
Compound: CC(=O)Nc1ccc(-c2ccnc3c2c(/C=C2\Oc4cc(O)cc(O)c4C2=O)cn3C)cc1 [Compound 35, N-(4-{3-[(Z)-(4,6-dihydroxy-3-oxo-1-benzofuran-2(3H)-ylidene)methyl]-1-methyl-1H-pyrrolo[2,3-b]pyridin-4-yl}phenyl)acetamide]

IC50 (PI3Kα): 10 nM | IC50 (mTOR; [1]): 24 nM | IC50 (PI3Kγ): 16 nM
Compound: Cn1cc(/C=C2\Oc3cccc(O)c3C2=O)c2c(-c3ccc(S(=O)(=O)NCc4ccccc4)cc3)ccnc21 [Compound 90, N-benzyl-4-{3-[(Z)-(4-hydroxy-3-oxo-1-benzofuran-2(3H)-ylidene)methyl]-1-methyl-1H-pyrrolo[2,3-b]pyridin-4-yl}benzenesulfonamide]

IC50 (PI3Kα): 8 nM | IC50 (mTOR; [1]): 1.4 nM | IC50 (PI3Kγ): 49 nM
Compound: Cn1cc(/C=C2\Oc3cc(O)cc(O)c3C2=O)c2c(-c3cccc(C(=O)N4CCCC4)c3)ccnc21 [Compound 79, (2Z)-4,6-dihydroxy-2-({1-methyl-4-[3-(pyrrolidin-1-ylcarbonyl)phenyl]-1H-pyrrolo[2,3-b]pyridin-3-yl}methylene)-1-benzofuran-3(2H)-one]
